Measured values as given in patent US20190290656A1, “PT(IV) PRODRUGS” (YISSUM RESEARCH DEVELOPMENT COMPANY OF THE HEBREW …, priority 2015, published 2019).
Entries after “also recorded” stand apart in the source; their conditions may differ. Where two headings read alike, the source gives them in different places.

Experiments:
nine cancer cell lines = experiment: MTT cytotoxicity, over the nine cancer cell lines; conditions: for IC50: read-out: average IC50 values for the nine cancer cell lines, mean over nine cell lines, 72 h MTT
[1] = system: Histone deacetylase (HDAC); experiment: Histone deacetylase assay (Fluor-de-Lys) in MCF-7 cells; format: cell-based, human
Method: Histone deacetylase activity was determined using Fluor-de-Lys® HDAC fluorometric activity assay kit (Enzo Life Sciences International, Inc., Plymount Meeting, Pa., U.S.A.). […] Fluorescence was measured using a Fluoroskan Ascent FL (Labsystem, Finland) plate reader, with excitation at 360 nm and emission at 460 nm. For comparison purpose, the HDAC activity was also measured in nuclear extracts of MCF-7-treated cells by means of the same fluorometric activity assay kit. In this latter case, MCF-7 nuclear extracts were obtained as follow: cell pellets were re-suspended in lysis buffer [Tris.HCl (10 mM, pH 8.0), KCl (60 mM), EDTA (1.2 mM), DTT (1 mM), PMSF (0.05 mM), NP-40 (0.05%)] and kept on ice for 10 min. Subsequently, samples were centrifuged at 1000 g and re-suspended in the nuclear extraction buffer [Tris.HCl (20 mM, (pH 8.0), NaCl (420 mM), MgCl2 (0.7 mM), EDTA (0.25 mM), glycerol (25%)] for 30 min at 4° C., and then centrifuged at 15000 g for 15 min at 4° C.
The complexes described here were specifically designed to release either VPA of PhB inside the cells in the hope that they will inhibit HDAC activity paving the way for more efficient DNA platination. Thus, in addition to measuring the levels of DNA platination, we also measured the ability of these pro-drugs to inhibit HDAC activity in cells. […] For comparison purposes, the HDAC inhibitory effect determined by tested complexes was also assayed in isolated nuclei of MCF-7 treated cells (FIG. 3B).
The HDAC activity was determined by the Fluor de Lys® Fluorescent Cellular Activity Assay (Enzo Life Sciences).
Also, MCF-7 cells were incubated for 24 h with increasing concentrations of compounds I-VIII and their HDAC activity was determined. The IC50 values for the inhibition of HDAC activity in the cells are depicted in FIG. 3C.

HCT-15 cells = experiment: MTT cytotoxicity assay, HCT-15; format: cell-based, human
Method: (§1) Cisplatin (CDDP) and oxaliplatin (OXP) were dissolved just before the experiment in a 0.9% NaCl solution. […]
(§2) Cancer Res. 1988, 48, 589-601]. […] Triplicate cultures were established for each treatment.
(§3) MTT assay. […] Triplicate cultures were established for each treatment.
(§4) The two dimers, 3a and 3b, as well as compounds 1a and 2a were screened against six human cancer cell lines representative of lung (H157), colon (HCT-15), cervical (A431), ovarian (2008) and pancreatic (PSN1) cancers, along with melanoma (A375). Cytotoxicity was evaluated by means of the MTT test after 72 h of treatment and the in vitro antitumor potential of newly synthesized derivatives was compared to that of the reference metallo-drugs CDDP and OXP.

A498 cells = experiment: MTT cytotoxicity assay, A498; format: cell-based, human; conditions: A498, 72 h exposure, read-out: IC50 (median growth inhibitory concentration)
Method: (§5) Platinum(IV) complexes were dissolved in DMSO to stock solutions of 1 mg/mL just before the experiment, and a calculated amount of drug solution was added to the cell growth medium to a final solvent concentration of 0.5%, which had no discernible effect on cell killing. Cisplatin (CDDP) and oxaliplatin (OXP) were dissolved just before the experiment in a 0.9% NaCl solution.
(§6) Human prostate adenocarcinoma (PC3) cells were obtained from European Collection of Cell Cultures (ECACC, Salisbury, UK). Human ovarian cancer cell lines A2780 and its cisplatin resistant variant, A2780cisR, were kindly provided by Prof.
as §2

BxPC3 cells = experiment: MTT cytotoxicity assay, BxPC3; format: cell-based, human; conditions: BxPC3, 72 h exposure, MTT; read-out: IC50 (median growth inhibitory concentration)
A375 cells = experiment: MTT cytotoxicity assay, A375; format: cell-based, human
Method: as §1, §2, §3, §4

A2780 cells = experiment: MTT cytotoxicity assay, A2780; format: cell-based, human; conditions: A2780, 72 h exposure, MTT; read-out: IC50 (median growth inhibitory concentration)
Method: as §5, §6, §2

A2780cisR cells = experiment: MTT cytotoxicity assay, A2780cisR (cisplatin resistant); format: cell-based, human; conditions: for IC50: 72 h exposure, MTT, read-out: IC50 (median growth inhibitory concentration); for resistance factor: ratio IC50 resistant (A2780cisR) / sensitive (A2780) cells
Method: as §5, §6, §2

MCF-7 cells = experiment: MTT cytotoxicity assay, MCF-7; format: cell-based, human; conditions: MCF-7, 72 h exposure, MTT; read-out: IC50 (median growth inhibitory concentration)
Method: (§7) Cisplatin (CDDP) and oxaliplatin (OXP) were dissolved just before the experiment in a 0.9% NaCl solution.
as §6
(§8) Triplicate cultures were established for each treatment.

PC3 cells = experiment: MTT cytotoxicity assay, PC3; format: cell-based, human; conditions: PC3, 72 h exposure, read-out: IC50 (median growth inhibitory concentration)
Method: as §7, §6, §8

A549 cells = experiment: MTT cytotoxicity assay, A549; format: cell-based, human; conditions: A549, 72 h exposure, MTT; read-out: IC50 (median growth inhibitory concentration)
Method: as §7, §6, §8

[2] = octanol/water partition, shake-flask method; format: physicochemical
Method: To quantify the hydrophobicity of the platinum complexes, partition coefficients (log P) values for octanol/water partition were measured using the shake-flask method.

2008 cells = experiment: MTT cytotoxicity assay, 2008; format: cell-based, human; conditions: 2008, 72 h, MTT
Method: as §3, §4

H157 cells = experiment: MTT cytotoxicity assay, H157; format: cell-based, human; conditions: H157, 72 h
Method: as §3, §4

PSN-1 spheroids = experiment: 3D spheroid APH assay, PSN-1; format: cell-based, human; conditions: PSN-1 spheroids, 72 h, APH test
Source text: (§9) Acid phosphatase (APH) assay. A modified APH assay, which is based on quantification of cytosolic acid phosphatase activity, was used for determining cell viability in spheroids. […] Triplicate cultures were established for each treatment. […] Evaluation was based on means from at least four independent experiments.
(§10) In order to improve the predictive capacity of the in vitro assays, we tested the activity in three three-dimensional (3D) cell cultures; human colon cancer cells, HCT-15, and human pancreatic cancer cells, KRAS wild type BxPC3 cells KRAS mutated PSN-1 cells. The cancer spheroids were treated with 3a and 3b for 72 h and the cell viability was assessed by means of the APH assay (Table 6). For comparison purposes, the cytotoxicities of CDDP and OXP were evaluated under the same experimental conditions.

PSN1 cells = experiment: MTT cytotoxicity assay, PSN1; format: cell-based, human; conditions: PSN1, 72 h, MTT
Method: as §3, §4

A431 cells = experiment: MTT cytotoxicity assay, A431; format: cell-based, human; conditions: A431, 72 h
Method: as §3, §4

BxPC3 spheroids = experiment: 3D spheroid APH assay, BxPC3; format: cell-based, human; conditions: 72 h, APH test
Source text: as §9, §10

HCT-15 spheroids = experiment: 3D spheroid APH assay, HCT-15; format: cell-based, human; conditions: HCT-15 spheroids, 72 h, APH test
Source text: as §9, §10

[3] = HCT-15, 72 h exposure, MTT (Table 1), read-out: IC50 (median growth inhibitory concentration)
[4] = A375, 72 h exposure, MTT (Table 1), read-out: IC50 (median growth inhibitory concentration)

SMILES | IC50 (nine cancer cell lines) | IC50 (HCT-15 cells; [3]) | IC50 (A498 cells) | IC50 (BxPC3 cells) | IC50 (A375 cells; [4]) | IC50 (A2780 cells) | IC50 (A2780cisR cells; A2780cisR) | resistance factor (A2780cisR cells) | IC50 (MCF-7 cells) | IC50 (PC3 cells) | IC50 (A549 cells) | further results
O=C(O)CCCc1ccccc1 [Compound 4-PB, 4-phenylbutyric acid, reference compound] | – | – | – | – | – | – | – | – | – | – | – | cytotoxicity IC50 values (in words) (nine cancer cell lines; uncoordinated ligands, listed as PhB): millimolar range; also recorded: mM range; IC50 for cellular inhibition of HDAC activity (in words) ([1]; MCF-7, 24 h, increasing concentrations): significantly higher
C1CCNCC1.CCCC(CCC)C(=O)[O][Pt]([OH])([Cl])[Cl].CCCCN [Compound V, trans-[Pt(n-butylamine)(VPA)(OH) (piperidine) Cl2]] | 9.27 µM | 14.4 ± 2.05 µM | 8.64 ± 0.95 µM | 4.43 ± 1.94 µM | 12.4 ± 2.93 µM | 1.18 ± 0.33 µM | 1.29 ± 0.29 µM | 1.1 | 8.8 ± 1.48 µM | 16.8 ± 1.41 µM | 15.5 ± 1.13 µM | fold more potent/effective than cisplatin (A2780cisR cells; A2780cisR): roughly 11 fold
CCCC(CCC)C(=O)[O][Pt]([NH2])([NH2])([Cl])([Cl])[O]C(C)=O [II, Pt(NH3)2Cl2(C2H3O2)(C8H15O2)]] | 4.48 µM | 6.36 ± 1.03 µM | 4.21 ± 0.95 µM | 3.54 ± 0.66 µM | 2.17 ± 0.53 µM | 1.02 ± 0.6 µM | 1.62 ± 0.3 µM | 1.6 | 5.74 ± 1.1 µM | 7.32 ± 1.24 µM | 8.36 ± 1.14 µM | fold reduction in potency compared with ctc-[Pt(NH3)2(VPA)2Cl2] (nine cancer cell lines; range over cell lines): 1.7-7.9 fold; Log P [2]: 0.17 ± 0.02
CCCC(CCC)C(=O)[O][Pt]12([O]C(=O)C(CCC)CCC)([NH]C3CCCCC3[NH]1)[O]C(=O)C(=O)[O]2 (stereo not shown) [III, [Pt(DACH)(C8H15O2)2(ox)]] | – | 16.4 ± 1.63 µM | 5.21 ± 1.1 µM | 14.4 ± 2.16 µM | 4.17 ± 0.87 µM | 1.3 ± 0.2 µM | 8.8 ± 2.1 µM | 6.8 | 5.7 ± 0.9 µM | 10.1 ± 1.17 µM | 20.5 ± 2.14 µM | –
O=C1[O][Pt]2([NH][C@@H]3CCCC[C@H]3[NH]2)[O]C1=O [OXP, oxaliplatin, reference compound] | 4.9 µM | 1.15 ± 0.43 µM | 7.94 ± 1.04 µM | 4.15 ± 0.93 µM | 6.3 ± 1.11 µM | 0.52 ± 0.27 µM | 4.2 ± 1.6 µM | – | 3.36 ± 0.2 µM | 5.24 ± 0.86 µM | 1.46 ± 0.31 µM | IC50 (2008 cells): 1.53 ± 0.88 µM; IC50 (HCT-15 cells; HCT-15, 72 h, MTT (Table 5), read-out: IC50 (μM) ± S.D.): 1.15 ± 0.43 µM; IC50 (H157 cells): 5.99 ± 1.85 µM; effect on HDAC activity (in words) ([1]; MCF-7, 24 h, IC50 concentrations): not effective in modifying HDAC activity; IC50 (PSN-1 spheroids): 59.7 ± 8.52 µM; IC50 (A375 cells; A375, 72 h, MTT (Table 5), read-out: IC50 (μM) ± S.D.): 6.3 ± 2.01 µM; IC50 (PSN1 cells): 8.25 ± 3.42 µM; IC50 (A431 cells): 3.06 ± 0.88 µM; IC50 (BxPC3 spheroids): 75.2 ± 6.91 µM; IC50 (HCT-15 spheroids): 36.5 ± 3.12 µM
CC(/C=C/C(=O)NO)=C\[C@@H](C)C(=O)c1ccc(N(C)C)cc1 [TSA, trichostatin A] | – | – | – | – | – | – | – | – | – | – | – | inhibition of HDAC activity ([1]; MCF-7, 24 h incubation with IC50 concentrations): about 90%
